Test results published in patent publication US7384656B2, “Anti-allergy composition and related method” (Access Business Group International LLC, priority 2004, dated 2008).

Columns and labels:
[1] = test system: LTC4 release, RBL-2H3 cells; assay: LTC4 release from IgE-sensitized, DNP-BSA stimulated RBL-2H3 cells (ELISA); format: cell-based; conditions: 0.1 μg/ml
Experimental: (§1) The methodology used to obtain the results of FIG. 9 will now be described. First, RBL-2H3 cells, available from ATCC (American Type Culture Collection) of Manassas, Va., were plated in 24 well plates at 5×10^4/well. Following adherence, the cells were exposed to the ingredients or combination of ingredients noted in FIG. 9, also referred to as samples. The samples were used at the concentrations noted in Table VI. Stock solutions of all samples were prepared in a solution of DMSO, ethanol, and water present in a ratio of 5:3:2 at 100 mg/ml. Each sample was then diluted in media to the final concentration. The cells were then incubated overnight with the samples. The following day a mouse anti-dinitrophenyl (DNP) IgE antibody, available from Sigma of St. Louis, Mo., was added to the cells at a final concentration of 1 ng/ml. The cells were incubated for 1.5 hr at 37° C. to allow binding of the IgE molecule to the cellular IgE receptor via the constant region of the antibody. Following this incubation period, the cells were washed twice. A solution containing DNP conjugated to BSA (DNP-BSA), available from Calbiochem of San Diego, Calif., was added to the cells at 0.5 ng/ml. […] Next, the measured OD450 data from the ELISA was inputted into a calibration graph to determine the amount by which histamine was reduced relative to an untreated control sample. […]

[2] = test system: PGD2 release, RBL-2H3 cells; assay: PGD2 release from IgE-sensitized, DNP-BSA stimulated RBL-2H3 cells (ELISA); format: cell-based; conditions: 1 μg/ml
Experimental: as §1

[3] = test system: histamine release, RBL-2H3 cells; assay: Histamine release from IgE-sensitized, DNP-BSA stimulated RBL-2H3 cells (ELISA); format: cell-based; conditions: 10 ng/ml
Experimental: The methodology used to obtain the results of FIG. 9 will now be described. First, RBL-2H3 cells, available from ATCC (American Type Culture Collection) of Manassas, Va., were plated in 24 well plates at 5×10^4/well. Following adherence, the cells were exposed to the ingredients or combination of ingredients noted in FIG. 9, also referred to as samples. The samples were used at the concentrations noted in Table VI. Stock solutions of all samples were prepared in a solution of DMSO, ethanol, and water present in a ratio of 5:3:2 at 100 mg/ml. Each sample was then diluted in media to the final concentration. The cells were then incubated overnight with the samples. The following day a mouse anti-dinitrophenyl (DNP) IgE antibody, available from Sigma of St. Louis, Mo., was added to the cells at a final concentration of 1 ng/ml. The cells were incubated for 1.5 hr at 37° C. to allow binding of the IgE molecule to the cellular IgE receptor via the constant region of the antibody. Following this incubation period, the cells were washed twice. A solution containing DNP conjugated to BSA (DNP-BSA), available from Calbiochem of San Diego, Calif., was added to the cells at 0.5 ng/ml. The cells were incubated an additional 1 hr at 37° C. The supernatants were assayed for the presence of histamine, PGD2 and/or LTC4 using ELISA kits commercially available from Cayman Chemical of Ann Arbor, Mich. according to the manufacturer's specifications. Next, the measured OD450 data from the ELISA was inputted into a calibration graph to determine the amount by which histamine was reduced relative to an untreated control sample. An example of a histamine calibration graph is illustrated in FIG. 10. Suffice it to say that calibration graphs for PGD2 and LTC4 are similar. The calibration graph in FIG. 10 was generated by measuring the OD450 of multiple, known concentrations of purified histamine. As shown in the graph, the X-axis indicates the concentrations of the histamine in nanomolar; and the Y-axis indicates the OD450 derived from each of the concentrations. The line 120 connects the data points, while line 130 is a trend line corresponding to the equation in this particular embodiment of: Y=−0.0025X^2+0.2915X+2.0775 Equation 2 With the histamine calibration graph, the amount of histamine for each sample was determined, and the subsequent data was input into Table VI and FIG. 9 for comparative analysis.

[4] = test system: allergic response to allergen extracts (cat dander, pollen and grass); assay: Clinical study with Nasal Allergen Challenge (NAC): symptom scores and sneeze counts; format: in vivo, human
Experimental: To test the efficacy of an embodiment of the composition in inhibiting an allergic response, a comparative clinical study was conducted on human subjects. This clinical study consisted of testing twenty subjects for positive allergic reaction to allergen extracts (cat dander, pollen and grass). The subjects were then randomized to receive: a control, specifically a placebo; loratadine, a known anti-histamine drug, sold under the trademark CLARITIN, and a composition of the above embodiments including Picao preto, Acerola, and Cinnamon (referred to herein as the Blend). Each of these were administered to the subjects in three doses a day for two days before receiving a Nasal Allergen Challenge (NAC), which is a commonly used test for predicting real-life efficacy of allergen treatments. Specifically, Claritin was administered in an amount of 10 mg per dose; the placebo in an amount of 450 mg per dose; and the Blend in an amount of 450 mg per dose, that dose for the Blend including 150 mg Picao preto; 150 mg Acerola and 150 mg Cinnamon. Other suitable Cinnamon levels are in the range of about 25 mg to about 650 mg; suitable Picao preto levels are in the range of 25 to about 650 mg; and suitable Acerola levels are in the range of about 25 mg to about 650 mg.
(§2) During the NAC, subjects had […] increasing doses of allergen (0 (water was administered), 50, 250, 1250, and 6250 Bioequivalent Allergy Units/ml (BAU/ml)) squirted up their noses over a period of two hours. Bioequivalent Allergy Units were calculated using ID50EAL testing (Intradermal Dilution for 50 mm Sum of Erythema Determines Bioequivalent Allergy Units) (Turkeltaub PC, Biological standardization of allergenic extracts. Allergol Immunopathol (Madr). 1989, 17:53-65.
To analyze the allergy treatment effects of the Blend, Claritin and the placebo, a composite measurement of blockage, secretion and sneezing was determined. The smallest clinically meaningful difference in allergy treatment effects has been determined to be about a 0.5 score step on an 0 to 9 scale of the composite measurement of blockage, secretion and sneezing. Akerlund, A. et al, Clinical Trial Design, Nasal Allergen Challenge Models and Considerations of relevance to Pediatrics, Nasal Polyposis and Different Classes of Medication. J. Allergy. Clin. Imm., 115 (3.2): S460-482 (March 2005). Measurements used in connection determining blockage, secretion and sneezing were the Nasal Symptoms Score, the Pruritus-Rhinorrhea-Conjunctivitis Score, and sneeze counting, respectively.
The allergic symptoms of the twenty subjects were measured ten minutes after each exposure to the with an eleven-point Nasal Symptom Scale, (on a scale of 1-11, 11 being the most symptoms observed), which is common to the NAC, to establish the Nasal Symptom Score. The subjects also underwent the nasal lavage to collect supernatants which were assayed for allergic reaction and inflammatory mediators: prostaglandin D2; Leukotriene […]; and tryptase.
After the NAC, subjects were released, but continued rating their symptoms every two hours for eight hours using the Nasal Symptom Scale, as well as a 15-point Pruritus-Rhinorrhea-Conjunctivitis Scale, which is a common scale that is intended to be more sensitive than the Nasal Symptom Scale. On this scale, Pruritus, Rhinorrhea, and Conjunctivitis were each rated as none, mild, mild to moderate, moderate, moderate to severe, or severe, scored 0, 1, 2, 3, 4, or 5 points respectively, with a maximum total of 15 points for all three together. In addition, during the eight hour period, the subjects counted and recorded the number of their sneezes within each two-hour period to establish a sneeze count. […]

[5] = test system: Prostaglandin D2; assay: Allergic mediators in nasal fluid (nasal lavage) before and after NAC; format: in vivo, human; conditions: before versus after administration of allergens
Experimental: To test the efficacy of an embodiment of the composition in inhibiting an allergic response, a comparative clinical study was conducted on human subjects. This clinical study consisted of testing twenty subjects for positive allergic reaction to allergen extracts (cat dander, pollen and grass). The subjects were then randomized to receive: a control, specifically a placebo; loratadine, a known anti-histamine drug, sold under the trademark CLARITIN, and a composition of the above embodiments including Picao preto, Acerola, and Cinnamon (referred to herein as the Blend). […]
as §2
The allergic symptoms of the twenty subjects were measured ten minutes after each exposure to the with an eleven-point Nasal Symptom Scale, (on a scale of 1-11, 11 being the most symptoms observed), which is common to the NAC, to establish the Nasal Symptom Score. […]

[6] = test system: IgE receptor (FcεRIα) on RBL-2H3 cells; assay: IgE receptor expression on RBL-2H3 cells (anti-FcεRIα cell ELISA normalized to MTT viability); format: cell-based
Experimental: The methodology used to obtain the results of FIG. 1 will now be described. First, RBL-2H3 cells, available from ATCC (American Type Culture Collection) of Manassas, Va., were plated in 96 well plates at 3×10^4/well. Following adherence to the wells, the cells were exposed to the sample combinations of ingredients listed in Table I, each combination referred to as a “sample.” Stock solutions of all samples were prepared in a solution of DMSO, ethanol, and water present in a ratio of 5:3:2 at 100 mg/ml. […] Duplicate plates of each sample were prepared so that viability could be determined multiple times for each sample, with the results of the multiple samples averaged following treatment of the cells. The plates were incubated an additional 48 hours. To measure IgE-receptor expression, the cells were fixed for 2 hours with 1% gluteraldehyde. Following fixation, the cells were washed twice with PBS-Tween 20 (0.01%), available from Aldrich of Milwaukee, Wis. Protein binding sites were blocked for 2 hours with 2% non-fat dry milk in PBS (Phosphate Buffer Saline buffered at pH 7.3). The cells were washed twice. The primary antibody, Rabbit anti-FcεRIα, available from Upstate Group, Inc., Lake Placid, N.Y., was added to the wells and diluted 1:4000 with 0.2% BSA (Bovine Serum Albumin). Following a 2 hour incubation, the wells were washed 5× with PBS-Tween 20 (0.01%) solutions. The secondary antibody, Goat anti-rabbit IgG-peroxidase, available from Sigma-Aldrich of St. Louis, Mo., was added to the wells at 1:20000 with 0.2% BSA. Following a 1 hour incubation the wells were washed five times. 100 μliters (microliters) of TMB (3,3′,5,5±Tetramethyl benzidine dihydrochloride) Substrate, available from Chemicon International of Temecula, Calif., was added to the wells. Subsequent color development was stopped by the addition of a sufficient amount, H2SO4 (for example, 100 μliters at 1 Normal). For each of the multiple samples of the combination, the OD450 (Optical Density measured at a wavelength of 450 nanometers) was read on a plate reader. Continuing with a description of the methodology to obtain the data in FIG. 1, the viability of the cells was next determined by incubating the cells in the second plate with MTT in a concentration of 1 mg/ml for 3 hours. The reduced MTT was extracted with 70% isopropanol and the OD540 (Optical Density at a wavelength of 540 nanometers) was read for each of the multiple samples.

[7] = test system: IgE secretion by U266 human myeloma cells; assay: IgE secretion by U266 human myeloma cells (IgE ELISA of supernatants); format: cell-based; conditions: varying concentrations
Experimental: The methodology used to obtain the results of FIG. 3 will now be described. First, U266 human myeloma cells, available from ATCC of Manassas, Va. were plated in 96 well plates at 4×10^4/well. The cells were exposed to the sample combinations of ingredients listed in Table I, each combination referred to as a “sample.” Stock solutions of all samples were prepared in a solution of DMSO, ethanol, and water present in a ratio of 5:3:2 at 100 mg/ml. Each sample was then diluted to 100 μg/ml in media. Duplicate plates of each sample were prepared so that viability could be determined multiple times for each sample, with the results of the multiple samples averaged following treatment of the cells. The plates were incubated an additional 48 hours. Thereafter, the amount of IgE in the supernatants was measured using a conventional quantitative IgE ELISA kit available from Bethyl Laboratories of Montgomery, Tex. Next, the measured OD450 data from the IgE ELISA was inputted into a calibration graph, illustrated in FIG. 4, to determine the concentration of IgE in ng/ml in each supernatant. This calibration graph was generated by measuring the OD450 of multiple, known concentrations (in nanograms per ml) of purified IgE. As shown in the graph, the X-axis indicates the concentrations of the IgE in ng/ml; and the Y-axis indicates the OD450 derived from each of the concentrations. The line 100 connects the data points, while line 110 is a trend line corresponding to the equation in this particular embodiment of: Y=0.2909X−0.2527 Equation 1 With the IgE calibration graph, the amount of IgE for each sample was determined, and the subsequent data was input into FIG. 3 for comparative analysis.

[8] = immediate phase (two hours during the NAC)

O=C(/C=C/c1ccc(O)c(O)c1)O[C@H](Cc1ccc(O)c(O)c1)C(=O)O [Rosmarinic acid]
Percent Control LTC4 Release (Table VI) [1]: 120% | Percent Control of PGD2 Release (Table VI) [2]: 94% | Percent Control of Histamine Release (Table VI) [3]: 9.3%

CCOC(=O)N1CCC(=C2c3ccc(Cl)cc3CCc3cccnc32)CC1 [Claritin, loratadine]
Nasal Symptom Scores versus placebo ([4]; delayed phase, at six hours and overall, Blend 450 mg per dose, Claritin 10 mg): significantly fewer | Nasal Symptom Score versus placebo (FIG. 15) ([4]; delayed phase, at two hours): trends toward significantly fewer symptoms | PRC score versus the Blend [4, 8]: lower PRC score | sneezes versus the Blend [4, 8]: fewer sneezes | Nasal Symptom Score versus the Blend ([4]; immediate phase (two hours during the NAC), Claritin 10 mg per dose): lower Nasal Symptom Score | Nasal Symptom Score Areas Over the Curve versus placebo (FIG. 18) ([4]; total product effect over eight hours): significantly better than the placebo | change of Prostaglandin D2 in nasal fluid after the NAC (FIG. 19) [5]: significant rise

O=C1O[C@H]([C@@H](O)CO)C(O)=C1O [Vitamin C]
decrease in IgE receptor expression (FIG. 5) ([6]; 200 micrograms per milliliter): 15% | effect on IgE receptor expression, in words (FIG. 5) ([6]; varying concentrations): significant effect | inhibition of IgE secretion, in words (FIG. 6) [7]: inhibited IgE secretion
